# Patent US6683103B2, “Sulfonamides for treatment of endothelin-mediated disorders” (Texas Biotechnology Corporation, priority 1997, dated 2004)
# Legend:
# [1] = system: Pulmonary Hypertension model; assay: Pulmonary hypertension model, in vivo efficacy; parameters: species or system rat; key to in vivo Efficacy: ++ effective at 5 mg/kg; − no effect at 5 mg/kg; + effective at 15 mg/kg; details: Pulmonary Hypertension model
# Protocol: As used herein, efficacy refers to the maximal effect that can be produced by a compound. Efficacy can be determined by methods known to those of skill in the art. For example, it can be determined by the properties of the compound and its receptor-effector system and is reflected in the plateau of the concentration-effect curve. In vivo efficacy refers to efficacy which is determined in an animal model. For example, in vivo efficacy of the compounds described herein can be determined by amelioration of hypoxia-induced pulmonary hypertension in rat. In this context, in vivo efficacy refers to the ability of a compound to restore an elevated pulmonary artery pressure to a normal value. […] J. Physiol. […] The in vivo activity was measured in a pulmonary hypertension model and is a measure of the activity of the compounds at selected dosages.
# [2] = Papp (Table 4); type: in vitro ADME
# [3] = Stability of solutions, percent remaining by HPLC; type: physicochemical; details: 150 mg/mL; LABRASOL; 24 h
# [4] = system: ET-1-induced pressor response; assay: ET-1-induced pressor responses in conscious, autonomically blocked rats; type: in vivo, rat; details: in 30 min at dosages as low as 30 mg/kg
# Protocol: Animals were placed in a restrainer and allowed to regain consciousness. Thirty minutes later autonomic blockade was administered (atropine methyl nitrate, 3 mg/kg, IV, followed by propranalol, 2 mg/kg, IV). An hour later animals received a bolus injection of vehicle (0.5 ml) followed thirty minutes later by intravenous bolus administration of ET-1 (Control, 1 μg/kg). Following recovery from this challenge, test-compounds were administered by intravenous bolus administration (0.5 ml) and then re-challenged with ET-1 thirty minutes later. Results are expressed as the percent inhibition of the ET-1-induced pressor response after administration of the test compound compared to the pressor response induced by the control ET-1 challenge. In some cases a third ET-1 challenge was administered ninety minutes after administration of the test compound.
# [5] = Oral half-life and peak plasma levels in rat; type: in vivo
# Excerpt: As used herein, bioavailability refers to the rate and extent of absorption. Methods for determining bioavailability are well known to those of skill in the art. For example, bioavailability of any of the compounds described herein can be determined empirically by administration of the compound to an animal, followed by taking blood samples over time and measuring the blood concentration of the compound. In vivo half life (t½) is defined as the time it takes for the concentration of the compound in the blood to be reduced by one-half. Estimations of the area under the curve for intravenous administration can be used to estimate the area under the curve for oral administration, yielding bioavailability data. See, e.q., Milo Gibal (1991) Biopharmaceutics and Pharmacology, 4th edition (Lea and Sediger).
# Table 4 lists oral half-life, bioavailability, and in vivo activity of selected exemplary compounds. The in vivo activity was measured in a pulmonary hypertension model and is a measure of the activity of the compounds at selected dosages.
# [6] = system: DOCA-salt hypertensive rat; assay: Deoxycorticosterone acetate (DOCA)-salt hypertensive rat model; type: in vivo
# Protocol: E. Deoxycorticosterone Acetate (DOCA)-Salt Hypertensive Rat Model for Assessing in vivo Activity of Selected Compounds
# Selected compounds disclosed herein have been tested for activity in the deoxycorticosterone acetate (DOCA)-salt hypertensive rat model. To perform these tests, silastic MDX4-4210 elastomer implants containing 47 mg (DOCA) were prepared according to the method of Ornmsbee et al. ((1973) the J. Pharm. Sci. 62:255-257). Briefly, DOCA is incorporated into silicon rubber implants for sustained release. To prepare the implants the DOCA is incorporated into unpolymerized silicone rubber, catalyst is added and the mixture is cast in a hemicylindrical shape.
# Sprague Dawley rats (7-8 weeks old) were unilaterally nephrectomized under ketamine anesthesia and a DOCA-implant was placed on the left lateral dorsal abdomen of the animal. The rats were allowed to recover for three weeks. During recovery they were permitted free access to normal rat chow and 0.9% NaCl drinking solution in place of drinking water. The rats develop hypertension within 3 weeks.
# All animals were used in the tests between 21 and 30 days post surgery. The mean arterial blood pressure in these animals ranged from 165-200 mm Hg.
# On the day of experimentation, catheters were inserted under brevital anesthesia into the right femoral artery for measurement of blood pressure, and into the right femoral vein for administration of a selected compound. The animals were placed in a restrainer and allowed to recover for a minimum of 60 min or until a steady mean arterial blood pressure was recorded. At that time, the selected compound or control vehicle was administered either intravenously, as a 60 minute infusion, or orally by oral gavage. Blood pressure was recorded continuously for a further 10 hrs.
Papp [2],percent remaining (HPLC) [3],Peak Plasma Levels ([5]; in vivo),POt½ in Rat ([5]; oral),SMILES,in vivo Efficacy [1],reduction of pressure [4],effect on blood pressure [6]
2.32 ×10⁻⁶ cm/s,90.1%,173 µg/mL,4.1 h,"Cc1cc2c(cc1CC(=O)c1sccc1S(=O)(=O)Nc1onc(C)c1Cl)OCO2 [N-(4-chloro-3-methyl-5-isoxazolyl)-2-[2-methyl-4,5-(methylenedioxy)phenylacetyl]thiophene-3-sulfonamide]",++,about 30%,–
–,–,–,–,"Cc1noc(NS(=O)(=O)c2ccsc2C(=O)Cc2ccc3c(c2)OCO3)c1Cl [N-(4-chloro-3-methyl-5-isoxazolyl)-2-[(3,4-(methylenedioxy)phenylacetyl]thiophene-3-sulfonamide]",–,about 30%,effective in decreasing blood pressure
